Source: US6359010B1, “Methods of treating anxiety and mood disorders with oleamide” (priority 1999, dated 2002)
Like-named read-outs stand apart in the source and are kept apart here.

Assays:
rat 5-HT2 receptor = conditions: oocytes expressing the rat 5-HT2 receptor, cited from earlier work
5HT2 = conditions: in vivo evidence; cited from earlier work
[1] = test system: N-methyl-D-aspartate (NDMA) receptor; conditions: cited from earlier work
[2] = test system: CRH release from cloned hypothalamic IVB cells; test: CRH release from clone IVB cells by radioimmunoassay; assay type: cell-based, rat
Experimental: (§1) Embryonic day 19 Sprague Dawley rats were humanely dissected from pregnant rats and decapitated as described by Kasckow et al. (1997). The hypothalamus was removed and sliced. Hypothalamic slices were placed in phosphate buffered saline (PBS: NaCl, 137 mM; Na2HPO4, 21 mM; KH2PO4, 29 mM; KCl, 1.2 mM; pH 7.3). Cells were dissociated for 10-15 minutes in 0.25% trypsin containing 75 units/ml of DNAse in serum-free media (SFM) consisting of a mixture of Dulbecco's modified essential medium and Ham's F-12 (1:1, v/v from Gibco) supplemented with 14 mM glucose, 15 mM NaHCO3, 5 mM Hepes and 0.05 U/ml of penicillin streptomycin (Sigma). […]
(§2) Virus producer cell line γCRE/pZIPTEX was propagated at 1×10^6 cells per 100 mm tissue culture dish in the same media used for dissociated hypothalamic cultures (SFM+7.5% fetal bovine serum). […] One cell was selected on the basis of CRH peptide production which was monitored by radioimmunoassay (described below). […]
RIA for CRH was performed according to the protocol provided by IgG Corporation (Nashville, Tenn.) utilizing the reagents provided. […] Radioactivity of the pellet was measured using a Packard Multi-Prias 4 gamma counter (Packard Instruments, Downers, Ill.).
(§3) The quantitative data obtained were expressed as mean±standard error. […]

[3] = test system: CRH mRNA in cloned hypothalamic IVB cells; test: CRH mRNA detection by Northern hybridization in clone IVB cells; assay type: cell-based, rat; conditions: 0 mM to 10 mM oleamide, 20 hours incubation, densitometry normalized to 28S, vs vehicle
Experimental: as §1, §2
Total RNA was isolated using the PUREscript RNA isolation kit (Gentra Systems, Minneapolis, Minn.). […] A Foto/Eclipse Imager (Fotodyne Inc., Hartland, Wis.) interfaced with Power Macintosh 8100/110 using NIH ImageQuant analysis software was utilized for densitometric quantitation of the mRNA bands.
as §3

[4] = test system: c-fos mRNA in brain areas; conditions: IP, rodents, cited from earlier work
5HT3 receptor = target: T1, 5HT3 receptor (Homo sapiens, UniProt P46098); conditions: cited from earlier work
T1 sequence (P46098 24-478): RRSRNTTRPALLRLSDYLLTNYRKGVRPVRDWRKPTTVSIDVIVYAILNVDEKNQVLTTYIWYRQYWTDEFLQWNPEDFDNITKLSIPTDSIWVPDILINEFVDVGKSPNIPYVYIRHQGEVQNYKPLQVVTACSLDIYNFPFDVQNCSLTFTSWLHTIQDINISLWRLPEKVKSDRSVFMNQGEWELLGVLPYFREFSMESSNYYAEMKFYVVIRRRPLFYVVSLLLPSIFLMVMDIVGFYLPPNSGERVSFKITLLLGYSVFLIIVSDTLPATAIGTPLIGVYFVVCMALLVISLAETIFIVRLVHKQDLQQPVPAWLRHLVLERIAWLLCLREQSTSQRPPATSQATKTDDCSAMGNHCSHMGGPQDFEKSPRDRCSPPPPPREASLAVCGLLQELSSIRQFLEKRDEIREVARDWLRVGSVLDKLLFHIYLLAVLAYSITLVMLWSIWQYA

rats [5] = test: Elevated plus maze; assay type: in vivo, rat
Experimental: Methods for elevated plus maze testing were as follows: Based on Lister (1987), a 2 feet-4 arm radial maze consisting of 2 opposing enclosed arms (30 cm high×30 cm long×5 cm wide) and 2 opposing exposed arms (30 cm×5 cm) was constructed and was elevated on a pedestal 30 cm above the surface of a table and situated in the center of a dimly lit room. Testing was conducted in a quiet, dedicated room that was dimmed to provide 22 to 350 lux of illumination on the exposed arms of the maze and less than 1 lux within the enclosed arms. Animals were placed facing towards the enclosed arm in the center of the plus maze. […] (1992 , 1994). We assessed time in open arms and closed arms, total number of entries and rearings, based on Windle et al. (1997). All observers were blind to treatment to remove any investigator bias.

GABAA receptor = conditions: cited from earlier work
rats [6] = conditions: cited from earlier work

Structure (SMILES) | effect on 5-HT-elicited currents (rat 5-HT2 receptor) | 5HT2 function in vivo (5HT2) | effects on NMDA receptor [1] | immunoreactive CRH (CRH-LI) release ([2]; cloned IVB cells, 10 μM oleamide vs vehicle, n=9) | release of CRH ([2]; cloned hypothalamic IVB cells, concentration dependence) | CRH mRNA (CRH synthesis) [3] | CRH mRNA (CRH synthesis) ([3]; listed as Oleamide) | activation of brain areas (transient induction of c-fos mRNA) ([4]; 1 mg/kg) | activation of brain areas (transient induction of c-fos mRNA) ([4]; 5 or 10 mg/kg) | effects on 5HT3 receptor (5HT3 receptor) | exploratory behavior (rats [5]; 2 mg dose, rats approx. 250 g, n=10 per group) | total number of entries to both open and closed arm (rats [5]; 2 mg dose, rats, relative to vehicle, P=0.0241) | Rearings (mean) (rats [5]; 5 min of testing, 2 mg dose, rats, control 8.2, P=0.002) | Rearings (mean) (rats [5]; 10 min of testing, 2 mg dose, rats, control 15, P=0.01) | overall activity (rats [5]; IP dosing) | effects on GABAA receptor (GABAA receptor) | direct effects on 5-HT2 receptor (rat 5-HT2 receptor; without 5-HT) | sleep latency (rats [6]; doses between 5 and 150 mg) | duration of induced sleep (rats [6]; intraperitoneal, doses between 5 and 50 mg) [h]
CCCCCCCCCCCCCCCCCC(N)=O [octadecanamide, reference compound] | opposite those of oleamide |  |  |  |  |  |  |  |  |  |  |  |  |  |  |  |  |  | 
CCCCCCCC/C=C\CCCCCCCC(N)=O [oleamide, cis-9,10-octadecenoamide] | markedly potentiates | indirectly potentiates | no significant effects | significant increase | significant concentration-dependent increases | concentration-dependent manner | increased CRH mRNA | not | activation of multiple brain areas | no significant effects | overall increase in exploratory behavior | approximately doubled | 17.2 | 24 | decreasing overall activity | no significant effects | no significant direct effects | reduce sleep latency | 1 to 2.5
CCCCCCCC/C=C\CCCCCCCC(=O)O [oleic acid, reference compound] | does not have any effect |  |  |  |  |  |  |  |  |  |  |  |  |  |  |  |  |  | 
